Experimental data reported in paper PMC5218480 (PLoS ONE, 2017).

Tested on: MV-4-11 cells
Assay: Gene expression microarray analysis (Affymetrix PrimeView) and GSEA
Type: cell-based, human
Conditions: gene VPS36, vacuolar protein sorting 36 homolog; Azacitidine 1 mM; LIST F

With `Nc1ncn([C@@H]2O[C@H](CO)[C@@H](O)[C@H]2O)c(=O)n1` [azacitidine] the “RFU, VPS36 (ProbeSet 11739960_a_at)” value was 118.04 RFU.
